Measured values published in JP2022155436A, “メトホルミン塩の調製方法” (Guangzhou University, priority 2021, dated 2021).

Assay: Hygroscopicity (moisture uptake) test of metformin salts
Format: physicochemical
Details: 25°C, 10 days; for moisture-absorption weight increase: 75% RH (saturated NaCl) and 93% RH (saturated KNO3), sampled on day 5 and day 10; for hygroscopicity compared with metformin: 75% RH and 93% RH

Structure (SMILES) | moisture-absorption weight increase [%] | hygroscopicity compared with metformin
CN(C)C(=N)NC(=N)N.O=C(O)Cc1cccc2ccccc12 [メトホルミンと1-ナフタレン酢酸塩] | < 5 | 吸湿性が顕著に低下した
CN(C)C(=N)N=C(N)N.O=C(O)c1cc2ccccc2cc1O [メトホルミンと2-ヒドロキシ-3-ナフトエ酸塩form1] | < 5 | 吸湿性が顕著に低下した
CN(C)C(=N)NC(=N)N.O=C(O)c1ccc2ccccc2c1 [メトホルミンと2-ナフトエ酸塩] | < 5 | 吸湿性が顕著に低下した
CN(C)C(=N)NC(=N)N.O=C(O)c1cc2ccccc2cc1O [メトホルミンと2-ヒドロキシ-3-ナフトエ酸塩form2] | < 5 | 吸湿性が顕著に低下した
CN(C)C(=N)N=C(N)N.O=C(O)c1ccc2ccccc2c1O [メトホルミンと1-ヒドロキシ-2-ナフトエ酸塩] |  | 吸湿性が顕著に低下した
CN(C)C(=N)N=C(N)N.Oc1cccc2c(O)cccc12 [メトホルミンと1,5-ジヒドロキシナフタレン, メトホルミンと1,5-ジヒドロキシナフタレン塩] | < 5 | 吸湿性が顕著に低下した
